Assay results published in article PMC3382171 (PLoS ONE, 2012).

Legend:
Experiment in all cases: biochemical
Design in all cases: Invitrogen SelectScreen kinase panel, percent inhibition at 1 uM, ATP at Km
Conditions in all cases: read-out: Invitrogen KSS %Inh at 1 µM
EPHA4 = EPHA4 (Homo sapiens, UniProt P54764)
Method in brief: (§1)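 Commercial kinase panel screens run with ATP at the Km for each kinase. Compounds tested at 1 µM final concentration; values are % inhibition of phosphorylation relative to control.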

RPS6KA5 (MSK1) = RPS6KA5 (MSK1) (Homo sapiens, UniProt O75582)
Method in brief: as §1

FLT3 D835Y = FLT3 D835Y (Homo sapiens, UniProt P36888, D835Y)
Method in brief: as §1

NEK2 = NEK2 (Homo sapiens, UniProt P51955)
Method in brief: as §1

HIPK4 = HIPK4 (Homo sapiens, UniProt Q8NE63)
Method in brief: as §1

EEF2K = EEF2K (Homo sapiens, UniProt O00418)
Method in brief: as §1

AURKA (Aurora A) = AURKA (Aurora A) (Homo sapiens, UniProt O14965)
Method in brief: as §1

PDGFRA (PDGFR alpha) = PDGFRA (PDGFR alpha) (Homo sapiens, UniProt P16234)
Method in brief: as §1

MARK2 = MARK2 (Homo sapiens, UniProt Q7KZI7)
Method in brief: as §1

NTRK2 (TRKB) = NTRK2 (TRKB) (Homo sapiens, UniProt Q16620)
Method in brief: as §1

ERBB2 (HER2) = ERBB2 (HER2) (Homo sapiens, UniProt P04626)
Method in brief: as §1

BMX = BMX (Homo sapiens, UniProt P51813)
Method in brief: as §1

PLK1 = PLK1 (Homo sapiens, UniProt P53350)
Method in brief: as §1

EGFR (ErbB1) L861Q = EGFR (ErbB1) L861Q (Homo sapiens, UniProt P00533, L861Q)
Method in brief: as §1

CSF1R (FMS) = CSF1R (FMS) (Homo sapiens, UniProt P07333)
Method in brief: as §1

TEK (Tie2) = TEK (Tie2) (Homo sapiens, UniProt Q02763)
Method in brief: as §1

CHEK2 (CHK2) = CHEK2 (CHK2) (Homo sapiens, UniProt O96017)
Method in brief: as §1

MAP3K8 (COT) = MAP3K8 (COT) (Homo sapiens, UniProt P41279)
Method in brief: as §1

FLT3 = FLT3 (Homo sapiens, UniProt P36888)
Method in brief: as §1

CHEK1 (CHK1) = CHEK1 (CHK1) (Homo sapiens, UniProt O14757)
Method in brief: as §1

FRAP1 (mTOR) = FRAP1 (mTOR) (Homo sapiens, UniProt P42345)
Method in brief: as §1

INSRR (IRR) = INSRR (IRR) (Homo sapiens, UniProt P14616)
Method in brief: as §1

NTRK2 (TRKB), sequence (Q16620 whole entry): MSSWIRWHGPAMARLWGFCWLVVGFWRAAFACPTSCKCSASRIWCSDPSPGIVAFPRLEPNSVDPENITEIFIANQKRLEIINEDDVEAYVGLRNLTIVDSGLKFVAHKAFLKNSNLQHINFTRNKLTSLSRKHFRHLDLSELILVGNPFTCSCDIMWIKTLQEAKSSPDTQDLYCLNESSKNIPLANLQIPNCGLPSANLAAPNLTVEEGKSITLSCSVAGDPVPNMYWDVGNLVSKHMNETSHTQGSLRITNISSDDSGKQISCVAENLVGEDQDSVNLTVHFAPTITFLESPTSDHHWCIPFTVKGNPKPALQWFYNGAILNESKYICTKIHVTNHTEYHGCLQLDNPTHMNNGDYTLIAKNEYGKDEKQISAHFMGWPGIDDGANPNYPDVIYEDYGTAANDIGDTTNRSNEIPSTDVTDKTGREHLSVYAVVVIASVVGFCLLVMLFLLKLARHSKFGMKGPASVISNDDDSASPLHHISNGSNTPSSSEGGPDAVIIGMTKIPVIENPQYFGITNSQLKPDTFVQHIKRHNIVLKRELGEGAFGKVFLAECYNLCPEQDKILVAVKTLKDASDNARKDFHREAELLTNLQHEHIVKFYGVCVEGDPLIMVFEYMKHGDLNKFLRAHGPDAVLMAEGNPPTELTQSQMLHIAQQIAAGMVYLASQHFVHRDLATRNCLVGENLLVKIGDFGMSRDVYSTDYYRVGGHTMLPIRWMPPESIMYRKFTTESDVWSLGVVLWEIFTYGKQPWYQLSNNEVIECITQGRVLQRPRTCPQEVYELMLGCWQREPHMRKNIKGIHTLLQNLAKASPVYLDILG
BMX, sequence (P51813 whole entry): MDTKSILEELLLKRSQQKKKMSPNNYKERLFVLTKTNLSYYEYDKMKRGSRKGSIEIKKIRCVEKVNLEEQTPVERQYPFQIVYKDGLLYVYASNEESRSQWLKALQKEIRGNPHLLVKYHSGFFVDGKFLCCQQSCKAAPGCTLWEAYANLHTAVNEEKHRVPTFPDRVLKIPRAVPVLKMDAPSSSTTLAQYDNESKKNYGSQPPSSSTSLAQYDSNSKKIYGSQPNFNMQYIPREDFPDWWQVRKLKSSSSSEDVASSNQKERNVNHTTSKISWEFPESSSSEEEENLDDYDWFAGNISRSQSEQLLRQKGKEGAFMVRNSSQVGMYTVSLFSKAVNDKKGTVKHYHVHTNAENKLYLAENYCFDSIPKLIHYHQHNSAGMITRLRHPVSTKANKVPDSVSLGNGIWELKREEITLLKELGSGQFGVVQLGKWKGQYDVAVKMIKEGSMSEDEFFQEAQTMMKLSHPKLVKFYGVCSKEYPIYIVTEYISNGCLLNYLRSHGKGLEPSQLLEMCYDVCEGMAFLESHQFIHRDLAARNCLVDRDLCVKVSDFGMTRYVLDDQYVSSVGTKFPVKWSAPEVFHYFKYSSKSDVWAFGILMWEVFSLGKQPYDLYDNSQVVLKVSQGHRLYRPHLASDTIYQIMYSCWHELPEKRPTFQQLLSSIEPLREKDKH
CSF1R (FMS), sequence (P07333 whole entry): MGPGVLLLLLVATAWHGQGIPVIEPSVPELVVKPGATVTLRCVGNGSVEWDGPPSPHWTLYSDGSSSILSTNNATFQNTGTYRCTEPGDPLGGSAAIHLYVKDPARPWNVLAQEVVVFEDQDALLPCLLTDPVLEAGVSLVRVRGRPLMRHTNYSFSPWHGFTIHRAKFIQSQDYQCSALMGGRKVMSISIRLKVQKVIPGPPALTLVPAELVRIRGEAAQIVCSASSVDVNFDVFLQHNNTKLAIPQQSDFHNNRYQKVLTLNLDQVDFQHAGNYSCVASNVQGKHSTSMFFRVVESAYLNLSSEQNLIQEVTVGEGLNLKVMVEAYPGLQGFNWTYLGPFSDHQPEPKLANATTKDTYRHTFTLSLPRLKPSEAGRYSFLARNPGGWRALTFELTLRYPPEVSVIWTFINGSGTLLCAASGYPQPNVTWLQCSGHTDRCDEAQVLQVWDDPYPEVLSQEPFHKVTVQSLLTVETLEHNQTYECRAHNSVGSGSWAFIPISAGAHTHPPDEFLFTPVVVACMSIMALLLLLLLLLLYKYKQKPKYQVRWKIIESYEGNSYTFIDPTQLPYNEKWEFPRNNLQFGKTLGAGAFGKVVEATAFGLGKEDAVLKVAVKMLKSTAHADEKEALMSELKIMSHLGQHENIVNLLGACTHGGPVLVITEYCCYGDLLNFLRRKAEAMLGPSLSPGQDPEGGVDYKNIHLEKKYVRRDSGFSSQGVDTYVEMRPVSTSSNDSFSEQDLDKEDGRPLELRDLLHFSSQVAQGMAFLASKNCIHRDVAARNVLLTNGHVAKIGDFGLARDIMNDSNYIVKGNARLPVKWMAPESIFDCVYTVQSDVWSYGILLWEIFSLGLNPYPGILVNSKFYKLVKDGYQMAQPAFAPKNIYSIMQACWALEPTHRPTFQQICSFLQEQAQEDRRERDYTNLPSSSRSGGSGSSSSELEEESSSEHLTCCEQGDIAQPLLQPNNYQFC
MARK2, sequence (Q7KZI7 whole entry): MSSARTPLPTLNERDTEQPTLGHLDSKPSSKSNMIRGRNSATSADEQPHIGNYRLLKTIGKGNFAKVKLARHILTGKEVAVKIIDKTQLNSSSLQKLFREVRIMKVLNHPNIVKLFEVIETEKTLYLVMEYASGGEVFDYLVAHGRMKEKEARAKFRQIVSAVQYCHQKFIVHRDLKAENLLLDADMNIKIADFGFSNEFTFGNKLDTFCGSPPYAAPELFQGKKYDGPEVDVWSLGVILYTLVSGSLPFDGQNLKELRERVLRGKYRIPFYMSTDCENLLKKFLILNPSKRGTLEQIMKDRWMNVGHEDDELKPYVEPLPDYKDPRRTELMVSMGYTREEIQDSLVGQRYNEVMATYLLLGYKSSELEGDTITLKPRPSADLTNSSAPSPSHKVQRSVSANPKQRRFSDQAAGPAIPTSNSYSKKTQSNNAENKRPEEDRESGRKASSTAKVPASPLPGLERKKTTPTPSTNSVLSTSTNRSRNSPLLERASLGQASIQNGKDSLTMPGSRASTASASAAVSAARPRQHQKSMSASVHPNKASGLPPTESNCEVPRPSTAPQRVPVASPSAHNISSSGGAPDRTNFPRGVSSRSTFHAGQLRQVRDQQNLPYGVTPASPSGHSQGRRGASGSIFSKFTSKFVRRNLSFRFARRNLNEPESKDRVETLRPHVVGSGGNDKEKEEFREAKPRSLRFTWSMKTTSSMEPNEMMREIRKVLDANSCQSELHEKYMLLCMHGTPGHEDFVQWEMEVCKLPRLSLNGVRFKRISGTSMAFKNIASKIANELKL
CHEK1 (CHK1), sequence (O14757 whole entry): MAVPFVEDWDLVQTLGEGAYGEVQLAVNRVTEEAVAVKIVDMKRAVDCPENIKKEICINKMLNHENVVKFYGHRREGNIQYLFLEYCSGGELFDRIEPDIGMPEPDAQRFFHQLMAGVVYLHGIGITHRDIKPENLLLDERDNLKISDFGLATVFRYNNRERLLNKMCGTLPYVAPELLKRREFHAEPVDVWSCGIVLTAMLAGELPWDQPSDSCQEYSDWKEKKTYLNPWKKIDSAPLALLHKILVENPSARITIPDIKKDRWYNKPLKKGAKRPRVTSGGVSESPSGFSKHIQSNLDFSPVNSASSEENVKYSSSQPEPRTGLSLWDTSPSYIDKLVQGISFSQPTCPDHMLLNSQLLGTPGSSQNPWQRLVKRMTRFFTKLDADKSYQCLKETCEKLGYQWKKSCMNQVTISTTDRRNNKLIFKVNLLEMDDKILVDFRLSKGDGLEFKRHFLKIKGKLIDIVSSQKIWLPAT
INSRR (IRR), sequence (P14616 whole entry): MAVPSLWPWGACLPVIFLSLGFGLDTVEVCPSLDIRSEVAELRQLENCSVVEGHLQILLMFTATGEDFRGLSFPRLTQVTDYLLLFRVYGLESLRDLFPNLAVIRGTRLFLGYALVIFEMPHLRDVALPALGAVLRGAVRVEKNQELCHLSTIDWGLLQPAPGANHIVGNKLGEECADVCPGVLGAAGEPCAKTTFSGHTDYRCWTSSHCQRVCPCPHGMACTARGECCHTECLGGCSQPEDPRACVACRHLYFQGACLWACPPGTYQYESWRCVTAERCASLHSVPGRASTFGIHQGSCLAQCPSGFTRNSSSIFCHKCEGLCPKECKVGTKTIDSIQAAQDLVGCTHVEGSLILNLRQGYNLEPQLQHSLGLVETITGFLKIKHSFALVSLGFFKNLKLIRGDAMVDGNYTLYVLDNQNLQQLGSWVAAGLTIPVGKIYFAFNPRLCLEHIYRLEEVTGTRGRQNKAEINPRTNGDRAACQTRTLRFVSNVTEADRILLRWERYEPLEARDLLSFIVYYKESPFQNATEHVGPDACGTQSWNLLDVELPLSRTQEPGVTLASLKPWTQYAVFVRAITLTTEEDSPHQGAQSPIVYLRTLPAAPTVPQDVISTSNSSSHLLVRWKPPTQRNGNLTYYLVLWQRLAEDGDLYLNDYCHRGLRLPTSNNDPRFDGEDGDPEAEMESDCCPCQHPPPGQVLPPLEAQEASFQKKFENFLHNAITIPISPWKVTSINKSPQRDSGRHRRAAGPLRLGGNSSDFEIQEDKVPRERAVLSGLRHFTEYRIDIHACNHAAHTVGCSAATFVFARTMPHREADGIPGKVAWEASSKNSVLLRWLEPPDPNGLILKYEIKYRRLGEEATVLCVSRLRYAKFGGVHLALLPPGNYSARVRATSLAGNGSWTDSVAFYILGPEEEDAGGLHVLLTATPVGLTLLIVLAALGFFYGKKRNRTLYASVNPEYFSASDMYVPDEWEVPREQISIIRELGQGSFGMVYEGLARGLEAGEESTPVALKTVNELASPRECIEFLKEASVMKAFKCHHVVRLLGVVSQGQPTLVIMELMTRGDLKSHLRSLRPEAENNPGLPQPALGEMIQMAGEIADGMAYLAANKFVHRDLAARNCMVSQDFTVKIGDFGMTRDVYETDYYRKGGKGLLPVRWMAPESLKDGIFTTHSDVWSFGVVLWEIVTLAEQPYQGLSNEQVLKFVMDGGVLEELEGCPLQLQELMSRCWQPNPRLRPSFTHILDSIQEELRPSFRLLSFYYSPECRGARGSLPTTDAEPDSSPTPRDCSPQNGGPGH

inhibition at 1 µM (EPHA4): 1%
inhibition at 1 µM (RPS6KA5 (MSK1)): 3%
inhibition at 1 µM (FLT3 D835Y): 57%
inhibition at 1 µM (NEK2): 40%
inhibition at 1 µM (HIPK4): 8%
inhibition at 1 µM (EEF2K): 14%
inhibition at 1 µM (AURKA (Aurora A)): 15%
inhibition at 1 µM (PDGFRA (PDGFR alpha)): 10%
inhibition at 1 µM (MARK2): 9%
inhibition at 1 µM (NTRK2 (TRKB)): 23%
inhibition at 1 µM (ERBB2 (HER2)): 10%
inhibition at 1 µM (BMX): -3%
inhibition at 1 µM (PLK1): 27%
inhibition at 1 µM (EGFR (ErbB1) L861Q): 5%
inhibition at 1 µM (CSF1R (FMS)): 33%
inhibition at 1 µM (TEK (Tie2)): 2%
inhibition at 1 µM (CHEK2 (CHK2)): 7%
inhibition at 1 µM (MAP3K8 (COT)): 24%
inhibition at 1 µM (FLT3): 61%
inhibition at 1 µM (CHEK1 (CHK1)): 3%
inhibition at 1 µM (FRAP1 (mTOR)): -7%
inhibition at 1 µM (INSRR (IRR)): 3%
Structure (SMILES): N#CCCNc1nccc(-c2cn(CC(F)F)nc2-c2cnc3[nH]ccc3c2)n1 [RAFi, PF-04880594]
